{"source": "patent US20240360177A1", "about": "“PEPTIDES WITH ANTIMICROBIAL ACTIVITIES” (priority 2021, published 2024)", "key": {"[1]": {"system": "C. gattii", "settings": "ATCC MYA-4093; 72 hrs"}, "[2]": {"system": "C. glabrata", "settings": "ATCC 90030; 24 hrs"}, "[3]": {"system": "C. krusei", "settings": "MMX 7135; 24 hrs"}, "[4]": {"system": "C. parapsilosis", "settings": "ATCC 22019; 24 hrs"}, "[5]": {"system": "C. albicans", "settings": "ATCC 90028 or 90029; 24 hrs"}, "[6]": {"system": "C. tropicalis", "settings": "ATCC 90874; 24 hrs"}, "[7]": {"system": "C. dubliniensis", "settings": "ATCC MYA-578; 24 hrs"}, "[8]": {"system": "Candida spp.", "settings": "15 strains (Table 10)"}, "[9]": {"system": "C. auris", "settings": "CDC 386; 24 hrs"}, "[10]": {"test": "Cytotoxicity in HepG2 cells, intracellular ATP assay", "settings": "human, EC50 cytotoxicity in HepG2, intracellular ATP assay, Table 16; 18-22 hrs exposure without FBS"}, "[11]": {"system": "C. neoformans", "settings": "ATCC 90112; 72 hrs"}}, "note": "Non-standard residues stand in square brackets, D forms with d. Residues, ends and D or L forms follow the SMILES beside them. hArg = N=C(N)NCCCC[C@H](N)C(=O)O"}
{"smiles": "N=C(N)NCCCC[C@H](NC(=O)[C@@H](CCCNC(=N)N)NC(=O)[C@H](CCCCNC(=N)N)NC(=O)[C@@H](CCCNC(=N)N)NC(=O)[C@@H]1CCCN1C(=O)[C@H](CCCCNC(=N)N)NC(=O)[C@@H](CCCNC(=N)N)NC(=O)[C@H](CCCCNC(=N)N)NC(=O)[C@@H](CCCNC(=N)N)NC(=O)[C@@H]1CCCN1C(=O)[C@@H](CCCNC(=N)N)NC(=O)[C@H](CCCCNC(=N)N)NC(=O)[C@@H](CCCNC(=N)N)NC(=O)[C@@H]1CCCN1C(=O)[C@@H](CCCNC(=N)N)NC(=O)[C@H](CCCCNC(=N)N)NC(=O)[C@H](N)CCCNC(=N)N)C(N)=O", "note": "[SEQ ID NO: 88, r(Har)r-P-r(Har)r-P-r(Har)r(Har)-P-r(Har)r(Har)-NH2] (H-[dR][hArg][dR]P[dR][hArg][dR]P[dR][hArg][dR][hArg]P[dR][hArg][dR][hArg]-NH2)", "values": [{"measurement": "MIC C. gattii", "setting": "[1]", "value": 0.5, "unit": "µg/mL"}, {"measurement": "MIC C. glabrata", "setting": "[2]", "value": 0.5, "unit": "µg/mL"}, {"measurement": "MIC C. krusei", "setting": "[3]", "value": 0.5, "unit": "µg/mL"}, {"measurement": "MIC C. parapsilosis", "setting": "[4]", "value": 0.25, "unit": "µg/mL"}, {"measurement": "MIC C. albicans", "setting": "[5]", "value": 0.5, "unit": "µg/mL"}, {"measurement": "MIC C. tropicalis", "setting": "[6]", "value": 0.5, "unit": "µg/mL"}, {"measurement": "MIC C. dubliniensis", "setting": "[7]", "value": 0.5, "unit": "µg/mL"}, {"measurement": "MIC50 Candida species", "setting": "[8]", "value": 0.5, "unit": "µg/mL"}, {"measurement": "MIC90 Candida species", "setting": "[8]", "value": 1, "unit": "µg/mL"}, {"measurement": "MIC C. auris", "setting": "[9]", "value": 0.5, "unit": "µg/mL"}, {"measurement": "EC50", "setting": "[10]", "value": "> 300", "unit": "µg/mL"}, {"measurement": "MIC C. neoformans", "setting": "[11]", "value": 0.5, "unit": "µg/mL"}]}
